Assay results from the supplement of paper PMC10307832.

Tests used:
Test in all cases: relative viability (nuclei count vs DMSO), 5 days (fraction); higher = more cells survive
Cediranib + Bortezomib = compound: COc1cc2c(Oc3ccc4[nH]c(C)cc4c3F)ncnc2cc1OCCCN1CCCC1 [Cediranib] + CC(C)C[C@H](NC(=O)[C@H](Cc1ccccc1)NC(=O)c1cnccn1)B(O)O [Bortezomib] (partner 0.002 µM)
Procedure, shortened: (§1)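 Lung cancer cell lines, seeded in 1536-well plates, were treated the following day by pin tool with a single drug or with five library-drug doses (not always all listed) in √10 steps on top of a fixed anchor-drug dose. Cells were fixed and nuclei stained in one step after 5 days, and nuclei were counted. Relative viability is the nuclei count for treated wells divided by that for vehicle wells, reported as medians of duplicate plates.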

[1] = compound: O=C(C[C@H]1NCCC[C@@H]1O)Cn1cnc2cc(Br)c(Cl)cc2c1=O (racemic) [Halofuginone] + Nc1nc2[nH]cc(CCc3ccc(C(=O)N[C@@H](CCC(=O)O)C(=O)O)cc3)c2c(=O)[nH]1 [Pemetrexed] (partner 0.2 µM)
Procedure, shortened: as §1

[2] = compound: O=C(C[C@H]1NCCC[C@@H]1O)Cn1cnc2cc(Br)c(Cl)cc2c1=O (racemic) [Halofuginone] + CC(=O)c1c(C)c2cnc(Nc3ccc(N4CCNCC4)cn3)nc2n(C2CCCC2)c1=O [Palbociclib] (partner 0.5 µM)
Procedure, shortened: as §1

Cediranib + Dasatinib = compound: COc1cc2c(Oc3ccc4[nH]c(C)cc4c3F)ncnc2cc1OCCCN1CCCC1 [Cediranib] + Cc1nc(Nc2ncc(C(=O)Nc3c(C)cccc3Cl)s2)cc(N2CCN(CCO)CC2)n1 [Dasatinib] (partner 0.075 µM)
Procedure, shortened: as §1

Cell Line | relative viability (Cediranib + Bortezomib; first compound 0.04 µM) | relative viability (Cediranib + Bortezomib; first compound 0.4 µM) | relative viability (Cediranib + Bortezomib; first compound 1.265 µM) | relative viability (Cediranib + Bortezomib; first compound 4 µM) | relative viability ([1]; first compound 0.001 µM) | relative viability ([1]; first compound 0.003162 µM) | relative viability ([1]; first compound 0.01 µM) | relative viability ([1]; first compound 0.03162 µM) | relative viability ([1]; first compound 0.1 µM) | relative viability ([2]; first compound 0.001 µM) | relative viability ([2]; first compound 0.003162 µM) | relative viability ([2]; first compound 0.01 µM) | relative viability ([2]; first compound 0.03162 µM) | relative viability ([2]; first compound 0.1 µM) | relative viability (Cediranib + Dasatinib; first compound 0.04 µM) | relative viability (Cediranib + Dasatinib; first compound 0.1265 µM) | relative viability (Cediranib + Dasatinib; first compound 0.4 µM) | relative viability (Cediranib + Dasatinib; first compound 1.265 µM) | relative viability (Cediranib + Dasatinib; first compound 4 µM) | relative viability (Cediranib + Bortezomib; first compound 0.1265 µM)
LCLC-97TM1 | 0.351 | 0.643 | 0.769 | 0.578 | 0.183 | 0.156 | 0.189 | 0.16 | 0.153 | 0.3 | 0.194 | 0.257 | 0.239 | 0.219 | 0.893 | 0.81 | 0.799 | 0.876 | 0.834 | 
NCI-H520 | 0.734 | 0.687 | 0.462 | 0.622 | 0.726 | 0.662 | 0.784 | 0.611 | 0.246 | 0.191 | 0.222 | 0.208 | 0.232 | 0.2 | 0.264 | 0.238 | 0.162 | 0.155 | 0.174 | 
NCI-H1993 | 1.07 | 1.08 | 1.07 | 1.05 | 0.664 | 0.577 | 0.564 | 0.652 | 0.508 | 0.626 | 0.519 | 0.637 | 0.617 | 0.454 | 0.567 | 0.702 | 0.537 | 0.434 | 0.649 | 1.32
NCI-H1437 | 0.55 | 0.554 | 0.565 | 0.673 | 0.318 | 0.337 | 0.329 | 0.307 | 0.254 | 0.334 | 0.3 | 0.296 | 0.33 | 0.286 | 0.455 | 0.543 | 0.445 | 0.385 | 0.399 | 0.407
LC-2-ad | 1.09 | 0.973 | 1.03 | 0.959 | 0.273 | 0.305 | 0.251 | 0.246 | 0.269 | 0.504 | 0.505 | 0.456 | 0.478 | 0.411 | 0.555 | 0.654 | 0.427 | 0.496 | 0.403 | 1.04
HARA | 1.18 | 1.11 | 1.14 | 1.07 | 0.228 | 0.231 | 0.283 | 0.247 | 0.222 | 0.382 | 0.266 | 0.234 | 0.264 | 0.216 | 0.193 |  | 0.247 | 0.237 | 0.239 | 1.01
NCI-H522 |  |  |  |  | 1.08 | 0.968 | 1.03 | 1.11 | 0.918 | 0.861 | 0.756 | 0.829 | 1.04 | 0.95 | 0.827 | 0.77 | 0.85 | 0.965 | 0.811 | 
ABC-1 | 0.33 | 0.307 |  | 0.305 |  |  |  |  |  | 0.551 | 0.606 | 0.739 | 0.475 | 0.61 | 0.536 | 0.651 | 0.448 | 0.474 | 0.457 | 0.272
NCI-H1563 | 0.912 | 0.885 | 0.796 | 0.889 | 0.782 | 0.788 | 0.825 | 0.685 | 0.585 |  |  |  |  |  | 0.494 | 0.897 | 0.498 | 0.513 | 0.492 | 0.794
NCI-H1703 | 0.309 | 0.192 | 0.181 | 0.206 |  |  |  |  |  |  |  |  |  |  |  |  |  |  |  | 0.294
SK-MES-1 |  |  |  |  | 1.07 | 0.983 | 0.877 | 0.74 | 0.253 | 0.341 | 0.33 | 0.323 | 0.257 | 0.186 | 0.37 | 0.47 | 0.413 | 0.427 | 0.252 | 
NCI-H1944 |  |  |  |  | 0.611 | 0.62 | 0.579 | 0.586 | 0.496 | 0.286 | 0.362 | 0.313 | 0.357 | 0.293 | 0.216 | 0.227 | 0.221 | 0.193 | 0.236 | 
NCI-H2170 |  |  |  |  | 0.271 | 0.202 | 0.273 | 0.25 | 0.275 | 0.382 | 0.392 | 0.358 | 0.401 | 0.373 | 0.523 | 0.713 | 0.605 | 0.384 | 0.566 | 
NCI-H727 | 0.807 | 0.789 | 0.64 | 0.747 |  |  |  |  |  | 0.715 | 0.582 | 0.677 | 0.703 | 0.575 |  |  | 0.358 | 0.337 | 0.367 | 0.55
NCI-H1648 |  |  |  |  | 0.666 | 0.732 | 0.92 | 0.796 | 0.91 | 0.28 | 0.322 | 0.178 | 0.261 | 0.249 |  |  |  |  |  | 
EBC-1 | 0.702 | 0.528 | 0.687 | 0.687 |  |  |  |  |  |  |  |  |  |  |  |  |  |  |  | 0.628
NCI-H1395 |  |  |  |  | 0.873 | 0.822 | 0.991 | 0.696 | 0.571 | 0.645 | 0.589 | 0.542 | 0.553 | 0.458 | 0.44 | 0.45 | 0.37 | 0.374 | 0.405 | 
LK-2 |  |  |  |  | 0.25 | 0.212 | 0.294 | 0.249 | 0.241 | 0.736 | 0.714 | 0.691 | 0.777 | 0.552 | 0.283 | 0.224 | 0.331 | 0.212 | 0.262 | 
NCI-H1299 | 1.06 | 1.03 | 1.03 | 1.04 |  |  |  |  |  |  |  |  |  |  |  |  |  |  |  | 1.06
NCI-H1793 |  |  |  |  | 0.906 | 0.734 | 0.7 | 0.843 | 0.515 | 0.271 | 0.348 | 0.292 | 0.335 | 0.196 | 0.317 | 0.415 | 0.398 |  | 0.501 | 
NCI-H596 | 1.05 | 0.831 | 1 | 1.09 | 0.514 | 0.506 | 0.468 | 0.511 | 0.451 |  |  |  |  |  | 0.67 | 0.616 | 0.548 |  | 0.618 | 1.01
IA-LM | 1.01 | 0.926 | 0.771 | 0.912 |  |  |  |  |  |  |  |  |  |  |  |  |  |  |  | 1.14
